Activity calls are given as the source filed them. No cut-off for these calls is given here.
Legend:
HaCaT [1] = experiment: Anti-inflammatory activity in M5- stimulated human HaCaT cells assessed as reduction in CXCL-2 mRNA level incubated for 24 hrs by q-PCR analysis; format: functional, cell-based; conditions: dose 5-20 µM
HaCaT [2] = experiment: Anti-inflammatory activity in M5- stimulated human HaCaT cells assessed as reduction in IL-17 mRNA level incubated for 24 hrs by q-PCR analysis; format: functional, cell-based; conditions: dose 5-20 µM
HaCaT [3] = experiment: Anti-psoriasis effect in M5-stimulated human HaCaT cells assessed as upregulation of K1 protein expression at 20 uM pretreated with M5 followed by compound addition and measured after 24 hrs by Western blotting analysis; format: functional, cell-based
[4] = Drug absorption in rat skin assessed as skin permeability by measuring cumulative transdermal amount per unit area administered topically as 0.3% ointment at 100 mg by HPLC analysis; format: ADME, tissue-based, Skin of body; conditions: in vivo, topical_or_ocular
[5] = biological target: cAMP and cAMP-inhibited cGMP 3',5'-cyclic phosphodiesterase 10A (Homo sapiens, UniProt Q9Y233); experiment: Inhibition of PDE10A2 (449 to 770 residues) (unknown origin) extracted from Escherichia coli BL21 cells using 3H-cAMP/3H-cGMP as substrate preincubated with compound for 15 mins followed by substrate addition by liquid scintillation counter
cAMP and cAMP-inhibited cGMP 3',5'-cyclic phosphodiesterase 10A, sequence (Q9Y233 whole entry, the tested form may be a part): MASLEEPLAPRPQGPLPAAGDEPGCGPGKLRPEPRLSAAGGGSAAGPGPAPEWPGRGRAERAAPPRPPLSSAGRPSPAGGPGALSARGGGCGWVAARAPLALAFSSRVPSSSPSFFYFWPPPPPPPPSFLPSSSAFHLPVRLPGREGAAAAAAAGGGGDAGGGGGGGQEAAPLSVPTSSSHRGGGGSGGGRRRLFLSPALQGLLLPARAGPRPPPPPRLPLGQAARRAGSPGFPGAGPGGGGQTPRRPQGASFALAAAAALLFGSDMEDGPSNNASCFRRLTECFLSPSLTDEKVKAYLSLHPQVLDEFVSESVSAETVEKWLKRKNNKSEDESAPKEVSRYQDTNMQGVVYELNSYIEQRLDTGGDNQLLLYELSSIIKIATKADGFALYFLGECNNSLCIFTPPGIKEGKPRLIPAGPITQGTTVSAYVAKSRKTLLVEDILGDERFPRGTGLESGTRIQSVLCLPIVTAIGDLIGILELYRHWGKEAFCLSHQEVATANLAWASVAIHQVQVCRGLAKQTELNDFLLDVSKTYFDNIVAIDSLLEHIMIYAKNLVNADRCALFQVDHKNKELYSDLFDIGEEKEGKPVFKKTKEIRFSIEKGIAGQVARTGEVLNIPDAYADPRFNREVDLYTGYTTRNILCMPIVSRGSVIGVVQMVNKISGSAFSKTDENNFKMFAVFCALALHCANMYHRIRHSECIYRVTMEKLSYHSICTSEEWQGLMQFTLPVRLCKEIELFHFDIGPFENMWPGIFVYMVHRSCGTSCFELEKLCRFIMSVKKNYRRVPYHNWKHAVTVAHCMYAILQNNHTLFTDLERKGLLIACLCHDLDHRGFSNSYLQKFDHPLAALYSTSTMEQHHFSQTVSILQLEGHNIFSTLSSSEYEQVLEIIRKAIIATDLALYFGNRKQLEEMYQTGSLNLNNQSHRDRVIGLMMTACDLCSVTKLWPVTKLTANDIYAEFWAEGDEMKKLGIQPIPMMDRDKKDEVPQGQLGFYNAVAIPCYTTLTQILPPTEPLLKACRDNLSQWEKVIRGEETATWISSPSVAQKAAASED

[6] = biological target: 3',5'-cyclic-AMP phosphodiesterase 4C (Homo sapiens, UniProt Q08493); experiment: Inhibition of PDE4C1 (314 to 639 residues) (unknown origin) extracted from Escherichia coli BL21 cells using 3H-cAMP/3H-cGMP as substrate preincubated with compound for 15 mins followed by substrate addition by liquid scintillation counter
3',5'-cyclic-AMP phosphodiesterase 4C, sequence (Q08493 whole entry, the tested form may be a part): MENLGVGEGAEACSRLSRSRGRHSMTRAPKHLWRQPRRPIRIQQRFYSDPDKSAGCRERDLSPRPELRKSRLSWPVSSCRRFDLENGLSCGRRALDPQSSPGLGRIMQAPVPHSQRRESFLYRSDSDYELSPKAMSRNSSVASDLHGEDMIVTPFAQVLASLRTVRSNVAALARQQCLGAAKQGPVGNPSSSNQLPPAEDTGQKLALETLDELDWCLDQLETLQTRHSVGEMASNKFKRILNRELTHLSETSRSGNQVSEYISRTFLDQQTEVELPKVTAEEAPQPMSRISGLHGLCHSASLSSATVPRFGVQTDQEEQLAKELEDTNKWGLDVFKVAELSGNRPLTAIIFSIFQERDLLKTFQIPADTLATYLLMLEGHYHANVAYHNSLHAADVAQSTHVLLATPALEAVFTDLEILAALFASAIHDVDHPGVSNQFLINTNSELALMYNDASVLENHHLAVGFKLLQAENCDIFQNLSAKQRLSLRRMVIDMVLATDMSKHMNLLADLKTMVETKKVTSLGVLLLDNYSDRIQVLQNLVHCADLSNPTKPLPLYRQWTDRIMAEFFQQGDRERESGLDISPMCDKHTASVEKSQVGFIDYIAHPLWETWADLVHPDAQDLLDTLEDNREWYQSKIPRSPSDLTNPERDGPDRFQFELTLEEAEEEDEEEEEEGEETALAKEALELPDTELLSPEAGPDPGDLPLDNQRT

Mus musculus [7] = experiment: Anti-psoriasis effect in IMQ-induced female BALB/c mouse assessed as reduction in psoriasis area at 20 mg/kg administered topically as 0.3 % ointment pretreated with IMQ for 6 hrs followed by compound addition once daily for 7 days; format: functional, organism-based; conditions: time 7.0 day
RAW264.7 [8] = experiment: Anti-inflammatory activity in LPS-stimulated mouse RAW264.7 cells assessed as reduction in IL-6 mRNA level pretreated with compound for 2 hrs followed by LPS stimulation and measured after 6 hrs by q-PCR analysis; format: functional, cell-based; conditions: dose 5-20 µM, time 8.0 hrs
RAW264.7 [9] = experiment: Cytotoxicity against mouse RAW264.7 cells assessed as reduction in cell viability at 5 to 80 uM incubated for 24 hrs by CCK-8 assay; format: toxicity, cell-based; conditions: raw264.7, 24 h, dose 5-80 µM
Mus musculus [10] = experiment: Anti-psoriasis effect in IMQ-induced female BALB/c mouse assessed as decrease in skin scales at 20 mg/kg administered topically as 0.3 % ointment pretreated with IMQ for 6 hrs followed by compound addition once daily for 7 days; format: functional, organism-based; conditions: time 7.0 day
[11] = biological target: cGMP-specific 3',5'-cyclic phosphodiesterase (Homo sapiens, UniProt O76074); experiment: Inhibition of PDE5A1 (535 to 860 residues) (unknown origin) extracted from Escherichia coli BL21 cells using 3H-cAMP/3H-cGMP as substrate preincubated with compound for 15 mins followed by substrate addition by liquid scintillation counter
[12] = Metabolic stability in rat liver microsomes assessed as half life at 1 uM incubated upto 60 mins in presence of NADPH by LC-MS/MS analysis; format: ADME, Microsome
Mus musculus [13] = experiment: Anti-inflammatory activity in IMQ-induced psoriasis in female BALB/c mouse assessed as reduction in CXCL-2 mRNA level at 20 mg/kg administered topically as 0.3 % ointment pretreated with IMQ for 6 hrs followed by compound addition once daily for 7 days by q-PCR analysis; format: functional, organism-based; conditions: time 7.0 day
Mus musculus [14] = experiment: Anti-psoriasis effect in female BALB/c mouse model assessed as increase in K1 protein expression at 20 mg/kg administered topically as 0.3 % ointment pretreated with IMQ for 6 hrs followed by compound addition once daily for 7 days by Western blotting analysis; format: functional, organism-based; conditions: time 7.0 day
HaCaT [15] = experiment: Anti-psoriasis effect in M5-stimulated human HaCaT cells assessed as inhibition of cell proliferation at 20 uM pretreated with M5 followed by compound addition and measured after 24 hrs; format: functional, cell-based
Mus musculus [16] = experiment: Anti-inflammatory activity in IMQ-induced psoriasis in female BALB/c mouse assessed as reduction in TNF-alpha mRNA level at 20 mg/kg administered topically as 0.3 % ointment pretreated with IMQ for 6 hrs followed by compound addition once daily for 7 days by q-PCR analysis; format: functional, organism-based; conditions: time 7.0 day
Mus musculus [17] = experiment: Anti-psoriasis effect in IMQ-induced female BALB/c mouse model assessed as reduced bleeding in dermal papilla layers at 20 mg/kg administered topically as 0.3 % ointment pretreated with IMQ for 6 hrs followed by compound addition once daily for 7 days by H and E staining based analysis; format: functional, organism-based; conditions: time 7.0 day
Mus musculus [18] = experiment: Anti-psoriasis effect in IMQ-induced female BALB/c mouse assessed as reduction in psoriasis severity index score at 20 mg/kg administered topically as 0.3 % ointment pretreated with IMQ for 6 hrs followed by compound addition once daily for 7 days; format: functional, organism-based; conditions: time 7.0 day
HaCaT [19] = experiment: Inhibition of CREB phosphorylation in human HaCaT cells assessed as increase in pCREB/CREB ratio at 20 uM incubated for 2 hrs by Western blotting analysis; format: cell-based
HaCaT [20] = experiment: Anti-psoriasis effect in M5-stimulated human HaCaT cells assessed as upregulation of K10 protein expression at 20 uM pretreated with M5 followed by compound addition and measured after 24 hrs by Western blotting analysis; format: functional, cell-based
Mus musculus [21] = experiment: Anti-psoriasis effect in female BALB/c mouse model assessed as increase in K10 protein expression at 20 mg/kg administered topically as 0.3 % ointment pretreated with IMQ for 6 hrs followed by compound addition once daily for 7 days by Western blotting analysis; format: functional, organism-based; conditions: time 7.0 day
Mus musculus [22] = experiment: Anti-inflammatory activity in IMQ-induced psoriasis in female BALB/c mouse assessed as reduction in IL-17 mRNA level at 20 mg/kg administered topically as 0.3 % ointment pretreated with IMQ for 6 hrs followed by compound addition once daily for 7 days by q-PCR analysis; format: functional, organism-based; conditions: time 7.0 day
Mus musculus [23] = experiment: Anti-psoriasis effect in IMQ-induced female BALB/c mouse model assessed as reduction in fibroblast proliferation at 20 mg/kg administered topically as 0.3 % ointment pretreated with IMQ for 6 hrs followed by compound addition once daily for 7 days by H and E staining based analysis; format: functional, organism-based; conditions: time 7.0 day
HaCaT [24] = experiment: Anti-psoriasis effect in M5-stimulated human HaCaT cells assessed as decrease in K6 protein expression at 20 uM pretreated with M5 followed by compound addition and measured after 24 hrs by Western blotting analysis; format: functional, cell-based
Mus musculus [25] = experiment: Anti-inflammatory activity in IMQ-induced psoriasis in female BALB/c mouse assessed as reduction in IL-6 mRNA level at 20 mg/kg administered topically as 0.3 % ointment pretreated with IMQ for 6 hrs followed by compound addition once daily for 7 days by q-PCR analysis; format: functional, organism-based; conditions: time 7.0 day
Mus musculus [26] = experiment: Anti-psoriasis effect in IMQ-induced female BALB/c mouse assessed as decrease in erythema scores at 20 mg/kg administered topically as 0.3 % ointment pretreated with IMQ for 6 hrs followed by compound addition once daily for 7 days; format: functional, organism-based; conditions: time 7.0 day
Mus musculus [27] = experiment: Anti-psoriasis effect in IMQ-induced female BALB/c mouse model assessed as reduction in abnormal rete ridges at 20 mg/kg administered topically as 0.3 % ointment pretreated with IMQ for 6 hrs followed by compound addition once daily for 7 days by H and E staining based analysis; format: functional, organism-based; conditions: time 7.0 day
HaCaT [28] = experiment: Anti-psoriasis effect in M5-stimulated human HaCaT cells assessed as decrease in K17 protein expression at 20 uM pretreated with M5 followed by compound addition and measured after 24 hrs by Western blotting analysis; format: functional, cell-based

COC(=O)[C@H]1C[C@@H](Oc2c(O)ccc3cc(-c4ccc(OC(F)F)c(OCC5CC5)c4)oc23)CN1
Activity (HaCaT [1]): Dose-dependent-effect | Activity (HaCaT [2]): Dose-dependent-effect | Activity (HaCaT [3]): Active | Drug absorption [4]: 15.78 microg/cm2 | IC50 [5]: 1950 nM | IC50 [6]: 747 nM | Activity (Mus musculus [7]): Active | Activity (RAW264.7 [8]): Dose-dependent-effect | Activity (RAW264.7 [9]): Non-toxic | Activity (Mus musculus [10]): Active | IC50 [11]: 1730 nM | half-life at 1 µM [12]: 22.9 min | Activity (Mus musculus [13]): Active | Activity (Mus musculus [14]): Active | Activity (HaCaT [15]): Active | Activity (Mus musculus [16]): Active | Activity (Mus musculus [17]): Active | Activity (Mus musculus [18]): Active | inhibition (HaCaT [19]): Active | Activity (HaCaT [20]): Active | Activity (Mus musculus [21]): Active | Activity (Mus musculus [22]): Active | Activity (Mus musculus [23]): Active | Activity (HaCaT [24]): Active | Activity (Mus musculus [25]): Active | Activity (Mus musculus [26]): Active | Activity (Mus musculus [27]): Active | Activity (HaCaT [28]): Active
